Patent US11304946B2, “2-hetarylpyrimidine-4-carboxamides as aryl hydrocarbon receptor antagonists” (Bayer Aktiengesellschaft, priority 2017, dated 2022)

Columns and labels:
Human AhR = biological target: T1, Human AhR (Homo sapiens, UniProt P35869); assay: Transactivation assay in human cell line (in vitro assay 1: antagonism); format: cell-based; settings: U87 glioblastoma cells, AHR inducible (DRE) firefly luciferase reporter, 150 μM kynurenic acid, 20 hours
T1 construct: host or cells: U87 glioblastoma cells, stably transfected with DRE-driven firefly luciferase and constitutive renilla reporter constructs
T1 sequence (P35869 11-848): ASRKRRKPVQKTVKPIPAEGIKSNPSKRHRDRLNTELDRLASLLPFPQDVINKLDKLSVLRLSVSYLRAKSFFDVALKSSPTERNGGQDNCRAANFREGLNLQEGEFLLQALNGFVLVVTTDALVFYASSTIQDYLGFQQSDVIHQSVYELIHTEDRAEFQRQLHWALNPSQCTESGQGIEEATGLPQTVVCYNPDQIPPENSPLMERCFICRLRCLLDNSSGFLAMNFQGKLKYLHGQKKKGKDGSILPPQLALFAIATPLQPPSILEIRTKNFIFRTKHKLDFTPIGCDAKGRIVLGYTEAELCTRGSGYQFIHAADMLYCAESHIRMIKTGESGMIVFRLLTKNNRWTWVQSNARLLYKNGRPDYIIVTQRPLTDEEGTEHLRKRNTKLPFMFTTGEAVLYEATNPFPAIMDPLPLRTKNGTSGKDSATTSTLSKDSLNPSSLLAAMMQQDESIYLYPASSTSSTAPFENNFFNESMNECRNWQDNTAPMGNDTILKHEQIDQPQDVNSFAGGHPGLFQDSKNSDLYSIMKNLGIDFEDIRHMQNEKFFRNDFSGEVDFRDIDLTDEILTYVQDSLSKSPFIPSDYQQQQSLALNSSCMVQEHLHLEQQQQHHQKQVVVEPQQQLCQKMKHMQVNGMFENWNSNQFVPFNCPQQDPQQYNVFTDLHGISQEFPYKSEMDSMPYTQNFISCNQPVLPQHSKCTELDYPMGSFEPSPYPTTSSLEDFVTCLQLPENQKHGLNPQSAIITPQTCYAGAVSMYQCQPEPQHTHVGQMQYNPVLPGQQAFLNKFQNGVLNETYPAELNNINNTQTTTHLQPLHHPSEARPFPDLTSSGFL
Summary of the method: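 U87 glioblastoma cells with endogenous AHR, stably carrying DRE-driven firefly luciferase and constitutive Renilla reporters, prestimulated with kynurenic acid before compound. Dual luciferase read-out; Renilla signal used to flag toxicity.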

Mouse AhR = biological target: T2, Mouse AhR (Mus musculus, UniProt P30561); assay: Transactivation assay in mouse cell line (in vitro assay 2: antagonism); format: cell-based; settings: Hepa 1c1c7 cells, AHR inducible (DRE) firefly luciferase reporter, 200 μM kynurenic acid, 20 hours
T2 sequence (P30561 1-848): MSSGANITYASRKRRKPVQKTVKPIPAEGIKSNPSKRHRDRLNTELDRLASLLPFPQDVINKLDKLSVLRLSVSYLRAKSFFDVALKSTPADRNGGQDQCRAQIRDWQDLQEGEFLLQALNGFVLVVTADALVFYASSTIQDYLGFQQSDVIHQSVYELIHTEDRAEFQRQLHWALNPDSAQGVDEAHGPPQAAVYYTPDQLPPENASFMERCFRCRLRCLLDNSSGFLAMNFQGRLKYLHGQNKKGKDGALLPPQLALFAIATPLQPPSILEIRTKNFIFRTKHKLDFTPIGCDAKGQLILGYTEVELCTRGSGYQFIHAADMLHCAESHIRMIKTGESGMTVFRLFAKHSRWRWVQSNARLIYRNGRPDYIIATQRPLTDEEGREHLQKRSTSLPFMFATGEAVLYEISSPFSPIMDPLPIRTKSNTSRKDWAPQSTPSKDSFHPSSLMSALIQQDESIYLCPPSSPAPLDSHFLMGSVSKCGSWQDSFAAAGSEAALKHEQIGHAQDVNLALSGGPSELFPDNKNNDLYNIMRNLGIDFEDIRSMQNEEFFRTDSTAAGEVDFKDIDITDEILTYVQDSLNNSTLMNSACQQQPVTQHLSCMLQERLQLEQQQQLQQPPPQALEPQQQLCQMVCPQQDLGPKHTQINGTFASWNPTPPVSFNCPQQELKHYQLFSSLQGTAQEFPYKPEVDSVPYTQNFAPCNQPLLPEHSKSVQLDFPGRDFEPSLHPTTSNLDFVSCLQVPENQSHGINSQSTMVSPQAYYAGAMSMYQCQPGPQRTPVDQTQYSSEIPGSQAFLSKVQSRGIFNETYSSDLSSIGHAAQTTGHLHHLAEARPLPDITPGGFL
Protocol: Transactivation Assay in Mouse Cell Line (In Vitro Assay 2)
Transactivation assay was carried out in Hepa 1c1c7 cells (ATCC #CRL-2026) endogenously expressing AHR. In addition the cells were stably transfected with an AHR inducible firefly luciferase reporter gene construct that carried AHR-binding sites (DRE) in its promoter. Kynurenic acid is an endogenous AHR activating ligand and was used to prestimulate test cells prior to testing the antagonistic properties of compounds.
In Vitro Assay 2: Antagonism in Mouse Cell Line
Firefly luciferase activity was determined by the SteadyGlo Luciferase Assay System (Promega, #E2550).

Structure (SMILES): Cc1ccc(-c2nc(C(=O)N[C@@H](C)CO)cc(-c3ccc(OC(F)(F)F)cc3)n2)cn1 [Example 39, N-[(2S)-1-hydroxypropan-2-yl]-2-(6-methylpyridin-3-yl)-6-[4-(trifluoromethoxy)phenyl]pyrimidine-4-carboxamide]
- IC50 (Human AhR): 68.4 nM
- IC50 (Mouse AhR): 431 nM

Structure (SMILES): Cn1cc(-c2nc(C(=O)N[C@@H]3CS(=O)(=O)C[C@H]3O)cc(-c3ccc(OC(F)(F)F)cc3)n2)cn1 (relative stereo) [Example 100, N-[(trans)-4-hydroxy-1,1-dioxo-1lambda^6-thiolan-3-yl]-2-(1-methyl-1H-pyrazol-4-yl)-6-[4-(trifluoromethoxy)phenyl]pyrimidine-4-carboxamide]
- IC50 (Human AhR): 10.1 nM
- IC50 (Mouse AhR): 8.18 nM

Structure (SMILES): C[C@@H](CO)NC(=O)c1cc(-c2ccc(Cl)cc2)nc(-c2cccnc2)n1 [Example 9, 6-(4-chlorophenyl)-N-[(2S)-1-hydroxypropan-2-yl]-2-(pyridin-3-yl)pyrimidine-4-carboxamide]
- IC50 (Human AhR): 1.1 nM
- IC50 (Mouse AhR): 2.84 nM

Structure (SMILES): Cn1cc(-c2nc(C(=O)NCC(C)(C)O)cc(-c3ccc(OC(F)(F)F)cc3)n2)cn1 [Example 6, N-(2-hydroxy-2-methylpropyl)-2-(1-methyl-1H-pyrazol-4-yl)-6-[4-(trifluoromethoxy)phenyl]pyrimidine-4-carboxamide]
- IC50 (Human AhR): 7.53 nM
- IC50 (Mouse AhR): 15 nM

Structure (SMILES): Cn1cc(-c2nc(C(=O)NC3CCCC(F)(F)C3O)cc(-c3ccc(OC(F)(F)F)cc3)n2)cn1 (stereo not drawn) [Example 106, N-(3,3-difluoro-2-hydroxycyclohexyl)-2-(1-methyl-1H-pyrazol-4-yl)-6-[4-(trifluoromethoxy)phenyl]pyrimidine-4-carboxamide]
- IC50 (Human AhR): 7.32 nM
- IC50 (Mouse AhR): 20 nM

Structure (SMILES): C[C@@H](CO)NC(=O)c1cc(-c2ccc(OC(F)(F)F)cc2)nc(-c2ccnn2C)n1 [Example 34, N-[(2S)-1-hydroxypropan-2-yl]-2-(1-methyl-1H-pyrazol-5-yl)-6-[4-(trifluoromethoxy)phenyl]pyrimidine-4-carboxamide]
- IC50 (Human AhR): 29.6 nM
- IC50 (Mouse AhR): 24 nM

Structure (SMILES): Cc1[nH]ncc1-c1nc(C(=O)NCC(C)(C)O)cc(-c2ccc(OC(F)(F)F)cc2)n1 [Example 24, N-(2-hydroxy-2-methylpropyl)-2-(3-methyl-1H-pyrazol-4-yl)-6-[4-(trifluoromethoxy)phenyl]pyrimidine-4-carboxamide]
- IC50 (Human AhR): 208 nM
- IC50 (Mouse AhR): 359 nM

Structure (SMILES): C[C@@H](CO)NC(=O)c1cc(-c2ccc(Cl)cc2)nc(-c2cnn(C)c2)n1 [Example 11, 6-(4-chlorophenyl)-N-[(2S)-1-hydroxypropan-2-yl]-2-(1-methyl-1H-pyrazol-4-yl)pyrimidine-4-carboxamide]
- IC50 (Human AhR): 3.93 nM
- IC50 (Mouse AhR): 7.94 nM

Structure (SMILES): Cn1cc(-c2nc(C(=O)NCC(C)(C)O)cc(-c3ccc(Cl)cc3)n2)cn1 [Example 13, 6-(4-chlorophenyl)-N-(2-hydroxy-2-methylpropyl)-2-(1-methyl-1H-pyrazol-4-yl)pyrimidine-4-carboxamide]
- IC50 (Human AhR): 14.3 nM
- IC50 (Mouse AhR): 58.1 nM

Structure (SMILES): CC(C)(O)CNC(=O)c1cc(-c2ccc(Cl)cc2)nc(-c2cccnc2)n1 [Example 10, 6-(4-chlorophenyl)-N-(2-hydroxy-2-methylpropyl)-2-(pyridin-3-yl)pyrimidine-4-carboxamide]
- IC50 (Human AhR): 1.38 nM
- IC50 (Mouse AhR): 8.42 nM

Structure (SMILES): C[C@@H](CO)NC(=O)c1cc(-c2ccc(OC(F)(F)F)cc2)nc(-c2cc[nH]n2)n1 [Example 37, N-[(2S)-1-hydroxypropan-2-yl]-2-(1H-pyrazol-3-yl)-6-[4-(trifluoromethoxy)phenyl]pyrimidine-4-carboxamide]
- IC50 (Human AhR): 71.7 nM
- IC50 (Mouse AhR): 93 nM

Structure (SMILES): COc1ccncc1-c1nc(C(=O)N[C@@H](C)CO)cc(-c2ccc(Cl)cc2)n1 [Example 80, 6-(4-chlorophenyl)-N-[(2S)-1-hydroxypropan-2-yl]-2-(4-methoxypyridin-3-yl)pyrimidine-4-carboxamide]
- IC50 (Human AhR): 2.64 nM
- IC50 (Mouse AhR): 30.8 nM

Structure (SMILES): Cn1cc(-c2nc(C(=O)NC(CO)C3CCC3)cc(-c3ccc(OC(F)(F)F)cc3)n2)cn1 (stereo not drawn) [Example 94, N-(1-cyclobutyl-2-hydroxyethyl)-2-(1-methyl-1H-pyrazol-4-yl)-6-[4-(trifluoromethoxy)phenyl]pyrimidine-4-carboxamide]
- IC50 (Human AhR): 5.44 nM
- IC50 (Mouse AhR): 24.3 nM

Structure (SMILES): C[C@@H](CO)NC(=O)c1cc(-c2ccc(Cl)cc2)nc(-c2cnn(C3CC3)c2)n1 [Example 85, 6-(4-chlorophenyl)-2-(1-cyclopropyl-1H-pyrazol-4-yl)-N-[(2S)-1-hydroxypropan-2-yl]pyrimidine-4-carboxamide]
- IC50 (Human AhR): 1200 nM
- IC50 (Mouse AhR): 7400 nM

Structure (SMILES): CC(C)Cn1cc(-c2nc(C(=O)N[C@@H](C)CO)cc(-c3ccc(OC(F)(F)F)cc3)n2)cn1 [Example 36, N-[(2S)-1-hydroxypropan-2-yl]-2-[1-(2-methylpropyl)-1H-pyrazol-4-yl]-6-[4-(trifluoromethoxy)phenyl]pyrimidine-4-carboxamide]
- IC50 (Human AhR): 5220 nM
- IC50 (Mouse AhR): 10000 nM

Structure (SMILES): Cc1ncc(-c2nc(C(=O)NCC(C)(C)O)cc(-c3ccc(OC(F)(F)F)cc3)n2)cn1 [Example 21, N-(2-hydroxy-2-methylpropyl)-2′-methyl-6-[4-(trifluoromethoxy)phenyl][2,5′-bipyrimidine]-4-carboxamide]
- IC50 (Human AhR): 379 nM
- IC50 (Mouse AhR): 2130 nM

Structure (SMILES): Cc1ccsc1-c1nc(C(=O)N[C@@H](C)CO)cc(-c2ccc(Cl)cc2)n1 [Example 73, 6-(4-chlorophenyl)-N-[(2S)-1-hydroxypropan-2-yl]-2-(3-methylthiophen-2-yl)pyrimidine-4-carboxamide]
- IC50 (Human AhR): 16.3 nM
- IC50 (Mouse AhR): 28.8 nM

Structure (SMILES): Cc1nn(C)cc1-c1nc(C(=O)NCC(C)(C)O)cc(-c2ccc(OC(F)(F)F)cc2)n1 [Example 25, 2-(1,3-dimethyl-1H-pyrazol-4-yl)-N-(2-hydroxy-2-methylpropyl)-6-[4-(trifluoromethoxy)phenyl]pyrimidine-4-carboxamide]
- IC50 (Human AhR): 8.05 nM
- IC50 (Mouse AhR): 110 nM

Structure (SMILES): Cn1cc(-c2nc(C(=O)N[C@H](CO)C(C)(C)C)cc(-c3ccc(OC(F)(F)F)cc3)n2)cn1 [Example 88, N-[(2S)-1-hydroxy-3,3-dimethylbutan-2-yl]-2-(1-methyl-1H-pyrazol-4-yl)-6-[4-(trifluoromethoxy)phenyl]pyrimidine-4-carboxamide]
- IC50 (Human AhR): 20.4 nM
- IC50 (Mouse AhR): 8.19 nM

Structure (SMILES): C[C@@H](CO)NC(=O)c1cc(-c2ccc(Cl)cc2)nc(-c2cncnc2)n1 [Example 75, 6-(4-chlorophenyl)-N-[(2S)-1-hydroxypropan-2-yl][2,5′-bipyrimidine]-4-carboxamide]
- IC50 (Human AhR): 6.37 nM
- IC50 (Mouse AhR): 21.2 nM

Structure (SMILES): CC(C)(O)CNC(=O)c1cc(-c2ccc(OC(F)(F)F)cc2)nc(-c2cn[nH]c2)n1 [Example 20, N-(2-hydroxy-2-methylpropyl)-2-(1H-pyrazol-4-yl)-6-[4-(trifluoromethoxy)phenyl]pyrimidine-4-carboxamide]
- IC50 (Human AhR): 717 nM
- IC50 (Mouse AhR): 354 nM
